± gives the standard deviation of the averaged measurements.
Tests used:
Details in all cases: 72 h
Caco-2 [1] = assay: cell viability relative to DMSO; higher = less toxic
Calu-3 [2] = assay: as above
U2OS [3] = assay: as above
Vero E6 [4] = assay: as above
Caco-2 [5] = assay: relative viability EC50 (midpoint between 100% and the lowest measured viability); higher = less toxic
Calu-3 [6] = assay: as above
U2OS [7] = assay: as above
Vero E6 [8] = assay: as above
Caco-2 [9] = assay: drug sensitivity score (DSS) for viability; higher = more toxic; extreme values may be limits of the assay
Calu-3 [10] = assay: as above
U2OS [11] = assay: as above
Vero E6 [12] = assay: as above
HepG2 [13] = assay: cell viability relative to DMSO; higher = less toxic
HepG2 [14] = assay: drug sensitivity score (DSS) for viability; higher = more toxic; extreme values may be limits of the assay
HepG2 [15] = assay: relative viability EC50 (midpoint between 100% and the lowest measured viability); higher = less toxic

Row | Compound | cell viability (Caco-2 [1]; 1 nM) [%] | cell viability (Caco-2 [1]; 10 nM) [%] | cell viability (Caco-2 [1]; 100 nM) [%] | cell viability (Caco-2 [1]; 1000 nM) [%] | cell viability (Caco-2 [1]; 10000 nM) [%] | cell viability (Calu-3 [2]; 1 nM) [%] | cell viability (Calu-3 [2]; 10 nM) [%] | cell viability (Calu-3 [2]; 100 nM) [%] | cell viability (Calu-3 [2]; 1000 nM) [%] | cell viability (Calu-3 [2]; 10000 nM) [%] | cell viability (U2OS [3]; 1 nM) [%] | cell viability (U2OS [3]; 10 nM) [%] | cell viability (U2OS [3]; 100 nM) [%] | cell viability (U2OS [3]; 1000 nM) [%] | cell viability (U2OS [3]; 10000 nM) [%] | cell viability (Vero E6 [4]; 1 nM) [%] | cell viability (Vero E6 [4]; 10 nM) [%] | cell viability (Vero E6 [4]; 100 nM) [%] | cell viability (Vero E6 [4]; 1000 nM) [%] | cell viability (Vero E6 [4]; 10000 nM) [%] | relative viability EC50 (Caco-2 [5]) [µM] | relative viability EC50 (Calu-3 [6]) [µM] | relative viability EC50 (U2OS [7]) [µM] | relative viability EC50 (Vero E6 [8]) [µM] | drug sensitivity score (Caco-2 [9]) | drug sensitivity score (Calu-3 [10]) | drug sensitivity score (U2OS [11]) | drug sensitivity score (Vero E6 [12]) | cell viability (HepG2 [13]; 1 nM) [%] | cell viability (HepG2 [13]; 10 nM) [%] | cell viability (HepG2 [13]; 100 nM) [%] | cell viability (HepG2 [13]; 1000 nM) [%] | cell viability (HepG2 [13]; 10000 nM) [%] | drug sensitivity score (HepG2 [14]) | relative viability EC50 (HepG2 [15]) [µM]
1 | CCCN1C[C@H](CSC)C[C@@H]2c3cccc4[nH]cc(c34)C[C@H]21 [pergolide] | 93.2 | 93 | 99.5 | 96.4 | 100 | 89.8 | 105 | 104 | 99.7 | 101 | 97.3 | 102 | 100 | 102 | 97.3 | 95.9 | 96.5 | 95.6 | 90 | 96.4 | > 10 | > 10 | > 10 | > 10 | 0 | 0 | 0 | 0 | – | – | – | – | – | – | –
2 | COc1cc2c(cc1OC)C(c1ccc(N)cc1)=NNC(=O)C2 [CFM-2] | 93.1 | 102 | 98.7 | 95.5 | 98 | 95.5 | 100 | 98.3 | 112 | 101 | 97.1 | 98.2 | 95.4 | 95.5 | 87.1 | 98.7 | 93.8 | 96.6 | 96.1 | 100 | > 10 | > 10 | > 10 | > 10 | 0 | 0 | 0 | 0 | 109 | 97.2 | 104 | 113 | 71 | 0.8 | –
3 | Cn1nccc1Nc1nccc(-c2ccn([C@H](CO)c3ccc(Cl)c(F)c3)c(=O)c2)n1 [GDC-0994] | 97.6 ± 3.7 | 98.4 ± 3.1 | 87.8 ± 2.5 | 82.4 ± 5.8 | 79.9 ± 6.7 | 99.2 ± 6.9 | 103 ± 3 | 97.9 ± 7.3 | 96.45 ± 0.78 | 110 ± 4.3 | 96.9 ± 0.14 | 101.3 ± 0.99 | 92.2 ± 3.8 | 97.4 ± 0.85 | 96.8 ± 2.9 | 104 ± 7.4 | 101 ± 3.4 | 101 ± 5.4 | 87.75 ± 0.35 | 70.9 ± 5.8 | > 10 | > 10 | > 10 | – | 3.15 ± 2.6 | 0 | 0 | 2.6 ± 0.28 | 106.8 ± 0.57 | 96.8 ± 3 | 74.8 ± 3.2 | 38.2 ± 1.2 | 40.6 ± 3.4 | 14.5 ± 0.28 | 0.119
4 | COC[C@H](C)Oc1cc(O[C@@H](C)Cc2ccccc2)cc(C(=O)Nc2ccc(C(=O)O)cn2)c1 [GKA-50] | 100 | 97 | 96.2 | 96.2 | 92.7 | 96.9 | 103 | 97.8 | 107 | 98.2 | 103 | 104 | 103 | 99.4 | 98.8 | – | – | – | – | – | > 10 | > 10 | > 10 | – | 0 | 0 | 0 | – | 112 | 105 | 99.5 | 120 | 113 | 0 | > 10
5 | Nc1ccncc1 [dalfampridine] | 102 | 108 | 99.1 | 106 | 96 | 102 | 104 | 90.9 | 99 | 100 | – | – | – | – | – | 107 | 102 | 101 | 101 | 98.9 | > 10 | > 10 | – | > 10 | 0 | 0 | – | 0 | – | – | – | – | – | – | –
6 | Cc1c(Cn2c(C)nc3c(C(=O)O)cc(N4CCOCC4)cc32)cccc1C(F)(F)F | 102 | 97.3 | 91.2 | 93.1 | 84.9 | 110 | 101 | 97 | 94.4 | 86 | 95.7 | 104 | 96.2 | 99 | 91.3 | 97.2 | 101 | 93.1 | 84.4 | 58.9 | > 10 | > 10 | > 10 | – | 0.5 | 0.2 | 0 | 3.6 | – | – | – | – | – | – | –
7 | COc1cc2ncnc(Nc3cccc(Cl)c3F)c2cc1OC(=O)N1CCN(C)C[C@H]1C [AZD3759] | 94.4 | 91.1 | 91.2 | 90.1 | 81.9 | 86.5 | 93.6 | 93.1 | 48.4 | 32.2 | 96.8 | 101 | 95.6 | 95.6 | 92.8 | 94.7 | 90.3 | 81.8 | 60.8 | 51.6 | > 10 | 0.442 | > 10 | – | 1.1 | 10.6 | 0 | 9.3 | 101 | 86.6 | 104 | 95.8 | 101 | 0 | > 10
8 | O=C1c2c(O)cccc2C([C@@H]2O[C@H](CO)[C@@H](O)[C@H](O)[C@H]2O)c2cc(CO)cc(O)c21 (some centres undefined) [aloin] | 92.1 | 104 | 96.6 | 93.9 | 99.4 | 104 | 95.7 | 103 | 104 | 97.3 | 96.9 | 100 | 92.9 | 97.4 | 92.7 | – | – | – | – | – | > 10 | > 10 | > 10 | – | 0 | 0 | 0 | – | 106 | 94.1 | 103 | 94.7 | 103 | 0 | > 10
